The values below come from ChEMBL document CHEMBL1138204, “Low-calcemic, highly antiproliferative, 1-difluoromethyl hybrid analogs of the natural hormone 1alpha,25-dihydroxyvitamin D3: design, synthesis, and preliminary biological evaluation” (J Med Chem, 2006).

Assay [1] concerns the target T1, Vitamin D3 receptor (Homo sapiens) (UniProt P11473).
T1 sequence (whole entry): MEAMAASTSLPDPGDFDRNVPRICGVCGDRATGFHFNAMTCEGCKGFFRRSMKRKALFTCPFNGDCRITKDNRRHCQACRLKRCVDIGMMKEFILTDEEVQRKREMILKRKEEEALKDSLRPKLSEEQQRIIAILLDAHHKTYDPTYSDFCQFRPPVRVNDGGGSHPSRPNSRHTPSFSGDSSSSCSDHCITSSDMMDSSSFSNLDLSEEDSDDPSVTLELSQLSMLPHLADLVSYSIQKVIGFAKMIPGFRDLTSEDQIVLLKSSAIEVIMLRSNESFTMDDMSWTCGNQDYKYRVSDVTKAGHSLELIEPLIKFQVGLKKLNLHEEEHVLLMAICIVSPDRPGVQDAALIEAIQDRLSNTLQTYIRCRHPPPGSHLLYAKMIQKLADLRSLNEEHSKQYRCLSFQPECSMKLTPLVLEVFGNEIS
Description: Stabilization of human [35S]VDR against trypsin digestion by protease assay

Assay [2] has as its target T1, Vitamin D3 receptor (Homo sapiens). As to conditions: CV-1.
Description: Activity on human VDR-mediated transcription of osteocalcin VDRE fused to thymidine kinase promoter/growth hormone reporter gene in CV1 cells
Assay [3] can be described thus: Antiproliferative activity against murine keratinocytes. The class given is functional. As to conditions: Mus musculus, Keratinocyte; read-out: ED50 (the source's name).
The target of assay [4] is T2, Vitamin D3 receptor (Homo sapiens, UniProt P11473).
T2 sequence (P11473 whole entry): T1 sequence (whole entry)
In words: Displacement of [3H]1,25-dihydroxyvitamin D3 from human VDR by HAP assay. In general terms: In a radioligand displacement assay an active substance lowers the binding of a labelled ligand.

The species entered for assay [5] is Rattus norvegicus. Kind of assay: Calcemic activity in Sprague-Dawley rat measured as urinary calcium excretion relative to calcitriol. In kind it is functional, Urine.

For `C=C1/C(=C\C=C2/CCC[C@]3(C)[C@@H]([C@H](C)CCCC(C)(C)O)CC[C@@H]23)C[C@@H](O)C[C@@H]1C(F)F`, the ED50 in assay [1] is 500 nM; in assay [2] it was 390 nM. In assay [3], the EC50 was 150 nM. For the same molecule, the IC50 in assay [4] is 30 nM.

On to `C=C1/C(=C\C=C2/CCC[C@]3(C)C([C@H](C)CCC(F)(F)C(O)(CC)CC)=CC[C@@H]23)C[C@@H](O)C[C@@H]1C(F)F`, for which the Activity in assay [5] is listed as 16%. For the same molecule, the values for the ED50 in assay [1] and in assay [2] were 4 nM and 0.6 nM, respectively. Besides, the EC50 in assay [3] stood at 2 nM. Besides, the IC50 in assay [4] turned out to be 50 nM.

Consider `C=C1/C(=C\C=C2/CCC[C@]3(C)[C@@H]([C@@H](C)OCCCC(O)(CC)CC)CC[C@@H]23)C[C@@H](O)C[C@@H]1C(F)F`, for which the Activity in assay [5] is listed as 5%. Besides, the ED50 in assay [1] turned out to be 100 nM; in assay [2] it was 3 nM. Moreover, in assay [3], the EC50 was 7 nM. Further, the IC50 in assay [4] came to 19.5 nM.

As usually defined, the IC50 is the point on the concentration scale where inhibition reaches its midpoint.
